Data published in patent US11957684B2, “Treatment of heavy menstrual bleeding associated with uterine fibroids” (Sumitomo Pharma Switzerland GmbH, priority 2016, dated 2024).
Where “and” joins values, the source holds several entries; their conditions need not be identical. Equal entries are not always repeated. Where two headings read alike, the source gives them in different places.

Tested on: endometriosis-associated pain
Type: in vivo, human
Method: Subjects assessed and recorded their own quality of life (QOL) using the EHP-30 once a month during the study visit. As used in the examples, the VAS score was evaluated using a 100 mm scale. For pain intensity, the scale was anchored by “no pain” (score of 0) and “pain as bad as you can imagine” (score of 100). […] The above items were evaluated using a patient diary that was distributed by the sponsor. Subjects filled out the patient diary every day during the treatment period or until early termination. If taking prohibited analgesics, subjects recorded this fact in the patient diary along with the accompanying pain symptoms before use of analgesics. As used in the examples, pain during menstruation and pelvic pain unrelated to menstruation were evaluated using scores on the M-B&B and B&B. The M-B&B scores were recorded by subjects on the patient diary supplied by the sponsor. Subjects filled out the patient diary every day during the treatment period or until early termination. If taking prohibited analgesics, subjects recorded this fact in the patient diary along with the accompanying pain symptoms before use of analgesics. The investigator or subinvestigator assessed each patient's pain through interviews and filled out a B&B once a month. The items that were assessed are shown below. The M-B&B score included: dysmenorrhea (severe, moderate, mild, no pain, or no menstruation); pelvic pain (severe, moderate, mild, or no pain); deep dyspareunia (severe, moderate, mild, no pain, or no intercourse). The B&B score included: dysmenorrhea (severe, moderate, mild, none, or not applicable); dyspareunia (severe, moderate, mild, none, or not applicable); pelvic pain (severe, moderate, mild, or none); pelvic tenderness (severe, moderate, mild, or none); and induration (severe, moderate, mild, or none). As used in the examples, the EHP-30 score was obtained by subjects assessing and recording their own QOL using the EHP-30 questionnaire.

CONC(=O)Nc1ccc(-c2sc3c(c2CN(C)C)c(=O)n(-c2ccc(OC)nn2)c(=O)n3Cc2c(F)cccc2F)cc1 [Compound 1, N-(4-(1-(2,6-difluorobenzyl)-5-((dimethylamino)methyl)-3-(6-methoxy-3-pyridazinyl)-2,4-dioxo-1,2,3,4-tetrahydrothieno[2,3-d]pyrimidin-6-yl)phenyl)-N′-methoxyurea]
change from baseline in mean VAS, dysmenorrhea (10 mg, Day 1-28): −10.657±17.0824 mm | change from baseline in mean VAS, dyspareunia (10 mg, Day 1-28): 1.642±10.6212 mm | change from baseline in mean VAS, pelvic pain (10 mg, Day 1-28): −4.606±7.1304 mm | mean VAS score, dysmenorrhea (10 mg, Day 1-28): 17.556±17.0427 mm | mean VAS score, dyspareunia (10 mg, Day 1-28): 9.608±15.4027 mm | mean VAS score, pelvic pain (10 mg, Day 1-28): 9.988±10.3249 mm | change from baseline in mean VAS, dysmenorrhea (10 mg, Day 57-84): −14.747±16.8648 mm | change from baseline in mean VAS, dyspareunia (10 mg, Day 57-84): −1.033±12.2047 mm | change from baseline in mean VAS, pelvic pain (10 mg, Day 57-84): −6.282±9.1659 mm | mean VAS score, dysmenorrhea (10 mg, Day 57-84): 13.568±15.5954 mm | mean VAS score, dyspareunia (10 mg, Day 57-84): 10.110±18.5404 mm | mean VAS score, pelvic pain (10 mg, Day 57-84): 8.400±10.1329 mm | change from baseline in mean VAS, dysmenorrhea (10 mg, Day 141-168): −15.191±17.6754 mm | change from baseline in mean VAS, dyspareunia (10 mg, Day 141-168): −4.124±10.5641 mm | change from baseline in mean VAS, pelvic pain (10 mg, Day 141-168): −7.872±11.2457 mm | mean VAS score, dysmenorrhea (10 mg, Day 141-168): 11.758±15.4431 mm | mean VAS score, dyspareunia (10 mg, Day 141-168): 5.550±11.1157 mm | mean VAS score, pelvic pain (10 mg, Day 141-168): 6.861±9.2099 mm | change from baseline in EHP-30, control & powerlessness (10 mg, Week 24): −13.97±17.502 | change from baseline in EHP-30, emotional well-being (10 mg, Week 24): −8.38±15.918 | change from baseline in EHP-30, pain (10 mg, Week 24): −16.98±20.286 | change from baseline in EHP-30, social support (10 mg, Week 24): −7.52±10.840 | change from baseline in mean B&B score, dysmenorrhea (10 mg, Week 24): −1.0±0.87 | change from baseline in mean B&B score, dyspareunia (10 mg, Week 24): −0.3±0.67 | change from baseline in mean B&B score, pelvic pain (10 mg, Week 24): −0.8±0.79 | change from baseline in mean B&B score, pelvic tenderness (10 mg, Week 24): −0.7±0.83 | subjects without pain in B&B score, dysmenorrhea (10 mg, Week 24): 27.8% | subjects without pain in B&B score, dyspareunia (10 mg, Week 24): 63.9% | subjects without pain in B&B score, pelvic pain (10 mg, Week 24): 30.4% | subjects without pain in B&B score, pelvic tenderness (10 mg, Week 24): 35.4% | change from baseline in maximum M-B&B score, dysmenorrhea (10 mg, end of treatment): −0.7±1.01 | change from baseline in maximum M-B&B score, dyspareunia (10 mg, end of treatment): −0.2±0.69 | change from baseline in maximum M-B&B score, pelvic pain (10 mg, end of treatment): −0.7±0.94 | change from baseline in maximum VAS, dysmenorrhea (10 mg, end of treatment): −26.4±27.37 mm | change from baseline in maximum VAS, dyspareunia (10 mg, end of treatment): −4.2±16.30 mm | change from baseline in maximum VAS, pelvic pain (10 mg, end of treatment): −24.0±27.54 mm | change from baseline in mean M-B&B score, deep dyspareunia (10 mg, end of treatment): −0.171±0.4683 | change from baseline in mean M-B&B score, dysmenorrhea (10 mg, end of treatment): −0.509±0.6675 | change from baseline in mean M-B&B score, pelvic pain (10 mg, end of treatment): −0.260±0.3624 | change from baseline in mean VAS, dysmenorrhea (10 mg, end of treatment): −15.356±18.0506 mm | change from baseline in mean VAS, dyspareunia (10 mg, end of treatment): −3.454±10.8509 mm | change from baseline in mean VAS, pelvic pain (10 mg, end of treatment): −6.849 mm and −6.849±10.5616 mm | change from baseline in mean score of amount of bleeding (0 to 5) (10 mg, end of treatment): −0.529±1.2185 | change from baseline in proportion of days with usage of pain killer (10 mg, end of treatment): −6.32±9.817% | change in proportion of days without pain (M-B&B), deep dyspareunia (10 mg, end of treatment): 8.32±35.972% | change in proportion of days without pain (M-B&B), dysmenorrhea (10 mg, end of treatment): 29.55±42.700% | change in proportion of days without pain (M-B&B), pelvic pain (10 mg, end of treatment): 17.18±26.101% | change in proportion of days without pain (VAS), dysmenorrhea (10 mg, end of treatment): 29.28±43.277% | change in proportion of days without pain (VAS), dyspareunia (10 mg, end of treatment): 9.72±38.401% | change in proportion of days without pain (VAS), pelvic pain (10 mg, end of treatment): 17.90±24.924% | mean VAS score, dyspareunia (10 mg, end of treatment): 6.218±10.6280 mm | mean VAS score, pelvic pain (10 mg, end of treatment): 7.746±9.0900 mm | subjects who achieved amenorrhea (10 mg, end of treatment): 22.3% | subjects without pain in M-B&B score, dysmenorrhea (10 mg, end of treatment): 27.2% | subjects without pain in M-B&B score, dyspareunia (10 mg, end of treatment): 56.0% | subjects without pain in M-B&B score, pelvic pain (10 mg, end of treatment): 24.3% | subjects without pain in VAS score, dysmenorrhea (10 mg, end of treatment): 27.2% | subjects without pain in VAS score, dyspareunia (10 mg, end of treatment): 48.0% | subjects without pain in VAS score, pelvic pain (10 mg, end of treatment): 6.8% and 7% | change from baseline in mean VAS, dysmenorrhea (20 mg, Day 1-28): −9.158±16.6375 mm | change from baseline in mean VAS, pelvic pain (20 mg, Day 1-28): −3.962±6.6751 mm | mean VAS score, dysmenorrhea (20 mg, Day 1-28): 18.545±19.2141 mm | mean VAS score, dyspareunia (20 mg, Day 1-28): 10.809±15.5738 mm | mean VAS score, pelvic pain (20 mg, Day 1-28): 11.627±14.7324 mm | change from baseline in mean VAS, dysmenorrhea (20 mg, Day 57-84): −20.689±21.4387 mm | change from baseline in mean VAS, dyspareunia (20 mg, Day 57-84): −0.191±10.6032 mm | change from baseline in mean VAS, pelvic pain (20 mg, Day 57-84): −8.547±13.8568 mm | mean VAS score, dysmenorrhea (20 mg, Day 57-84): 6.626±13.5146 mm | mean VAS score, dyspareunia (20 mg, Day 57-84): 9.229±16.6530 mm | mean VAS score, pelvic pain (20 mg, Day 57-84): 6.675±10.8072 mm | change from baseline in mean VAS, dysmenorrhea (20 mg, Day 141-168): −19.860±19.1617 mm | change from baseline in mean VAS, dyspareunia (20 mg, Day 141-168): −4.012±12.5050 mm | change from baseline in mean VAS, pelvic pain (20 mg, Day 141-168): −8.678±10.6479 mm | mean VAS score, dysmenorrhea (20 mg, Day 141-168): 6.132±13.2012 mm | mean VAS score, dyspareunia (20 mg, Day 141-168): 3.806±8.9781 mm | mean VAS score, pelvic pain (20 mg, Day 141-168): 5.486±9.1562 mm | change from baseline in EHP-30, Self-image (20 mg, Week 24): −10.59±15.256 | change from baseline in EHP-30, control & powerlessness (20 mg, Week 24): −20.04±21.880 | change from baseline in EHP-30, emotional well-being (20 mg, Week 24): −15.37±17.858 | change from baseline in EHP-30, pain (20 mg, Week 24): −20.58±19.650 | change from baseline in EHP-30, social support (20 mg, Week 24): −13.44±17.055 | change from baseline in mean B&B score, dysmenorrhea (20 mg, Week 24): −1.5±0.94 | change from baseline in mean B&B score, dyspareunia (20 mg, Week 24): −0.4±0.70 | change from baseline in mean B&B score, pelvic pain (20 mg, Week 24): −0.9±0.85 | change from baseline in mean B&B score, pelvic tenderness (20 mg, Week 24): −0.8±0.79 | subjects without pain in B&B score, dysmenorrhea (20 mg, Week 24): 64.9% | subjects without pain in B&B score, dyspareunia (20 mg, Week 24): 53.6% | subjects without pain in B&B score, pelvic pain (20 mg, Week 24): 39.2% | subjects without pain in B&B score, pelvic tenderness (20 mg, Week 24): 37.8% | change from baseline in maximum M-B&B score, dysmenorrhea (20 mg, end of treatment): −1.4±1.12 | change from baseline in maximum M-B&B score, dyspareunia (20 mg, end of treatment): −0.3±0.59 | change from baseline in maximum M-B&B score, pelvic pain (20 mg, end of treatment): −0.7±0.79 | change from baseline in maximum VAS, dyspareunia (20 mg, end of treatment): −7.0±15.29 mm | change from baseline in maximum VAS, pelvic pain (20 mg, end of treatment): −33.3±30.14 mm
